Tests used:
Format in all cases: biochemical
[1] = target: ProfilerPro Kinase Selectivity Assay Kit kinases (Homo sapiens, UniProt P27361); conditions: ERK1; 1 μM compound concentration
Protocol: (§1) Compounds were profiled using a LabChip® EZ Reader II platform and a ProfilerPro Kinase Selectivity Assay Kit (Caliper Lifesciences Inc., Hopkinton, Mass.). Compounds were tested at a concentration of 1 M in duplicate, with mean data reported as percent of control (POC).

[2] = target: ProfilerPro Kinase Selectivity Assay Kit kinases (Homo sapiens, UniProt P08069); conditions: IGF1R; 1 μM compound concentration
Protocol: as §1

[3] = target: ProfilerPro Kinase Selectivity Assay Kit kinases (Homo sapiens, UniProt P12931); conditions: SRC; 1 μM compound concentration
Protocol: as §1

[4] = target: ProfilerPro Kinase Selectivity Assay Kit kinases (Homo sapiens, UniProt O14965); conditions: AURORA A; 1 μM compound concentration
Protocol: as §1

[5] = target: ProfilerPro Kinase Selectivity Assay Kit kinases (Homo sapiens, UniProt P11362); conditions: FGFR1; 1 μM compound concentration
Protocol: as §1

[6] = target: ProfilerPro Kinase Selectivity Assay Kit kinases (Homo sapiens, UniProt Q13627); conditions: DYRK1a; 1 μM compound concentration
Protocol: as §1

[7] = target: ProfilerPro Kinase Selectivity Assay Kit kinases (Homo sapiens, UniProt O75582); conditions: MSK1; 1 μM compound concentration
Protocol: as §1

[8] = target: ProfilerPro Kinase Selectivity Assay Kit kinases (Homo sapiens, UniProt P06241); conditions: FYN; 1 μM compound concentration
Protocol: as §1

[9] = target: ProfilerPro Kinase Selectivity Assay Kit kinases (Homo sapiens, UniProt P31751); conditions: AKT2; 1 μM compound concentration
Protocol: as §1

[10] = target: ProfilerPro Kinase Selectivity Assay Kit kinases (Homo sapiens, UniProt P24941); conditions: CDK2; 1 μM compound concentration
Protocol: as §1

[11] = target: ProfilerPro Kinase Selectivity Assay Kit kinases (Homo sapiens, UniProt Q9BZL6); conditions: PKD2; 1 μM compound concentration
Protocol: as §1

[12] = target: ProfilerPro Kinase Selectivity Assay Kit kinases (Homo sapiens, UniProt O14757); conditions: CHK1; 1 μM compound concentration
Protocol: as §1

[13] = target: ProfilerPro Kinase Selectivity Assay Kit kinases (Homo sapiens, UniProt P35968); conditions: KDR; 1 μM compound concentration
Chain of ProfilerPro Kinase Selectivity Assay Kit kinases (Homo sapiens, UniProt P35968) (P35968 20-1356 limits assumed): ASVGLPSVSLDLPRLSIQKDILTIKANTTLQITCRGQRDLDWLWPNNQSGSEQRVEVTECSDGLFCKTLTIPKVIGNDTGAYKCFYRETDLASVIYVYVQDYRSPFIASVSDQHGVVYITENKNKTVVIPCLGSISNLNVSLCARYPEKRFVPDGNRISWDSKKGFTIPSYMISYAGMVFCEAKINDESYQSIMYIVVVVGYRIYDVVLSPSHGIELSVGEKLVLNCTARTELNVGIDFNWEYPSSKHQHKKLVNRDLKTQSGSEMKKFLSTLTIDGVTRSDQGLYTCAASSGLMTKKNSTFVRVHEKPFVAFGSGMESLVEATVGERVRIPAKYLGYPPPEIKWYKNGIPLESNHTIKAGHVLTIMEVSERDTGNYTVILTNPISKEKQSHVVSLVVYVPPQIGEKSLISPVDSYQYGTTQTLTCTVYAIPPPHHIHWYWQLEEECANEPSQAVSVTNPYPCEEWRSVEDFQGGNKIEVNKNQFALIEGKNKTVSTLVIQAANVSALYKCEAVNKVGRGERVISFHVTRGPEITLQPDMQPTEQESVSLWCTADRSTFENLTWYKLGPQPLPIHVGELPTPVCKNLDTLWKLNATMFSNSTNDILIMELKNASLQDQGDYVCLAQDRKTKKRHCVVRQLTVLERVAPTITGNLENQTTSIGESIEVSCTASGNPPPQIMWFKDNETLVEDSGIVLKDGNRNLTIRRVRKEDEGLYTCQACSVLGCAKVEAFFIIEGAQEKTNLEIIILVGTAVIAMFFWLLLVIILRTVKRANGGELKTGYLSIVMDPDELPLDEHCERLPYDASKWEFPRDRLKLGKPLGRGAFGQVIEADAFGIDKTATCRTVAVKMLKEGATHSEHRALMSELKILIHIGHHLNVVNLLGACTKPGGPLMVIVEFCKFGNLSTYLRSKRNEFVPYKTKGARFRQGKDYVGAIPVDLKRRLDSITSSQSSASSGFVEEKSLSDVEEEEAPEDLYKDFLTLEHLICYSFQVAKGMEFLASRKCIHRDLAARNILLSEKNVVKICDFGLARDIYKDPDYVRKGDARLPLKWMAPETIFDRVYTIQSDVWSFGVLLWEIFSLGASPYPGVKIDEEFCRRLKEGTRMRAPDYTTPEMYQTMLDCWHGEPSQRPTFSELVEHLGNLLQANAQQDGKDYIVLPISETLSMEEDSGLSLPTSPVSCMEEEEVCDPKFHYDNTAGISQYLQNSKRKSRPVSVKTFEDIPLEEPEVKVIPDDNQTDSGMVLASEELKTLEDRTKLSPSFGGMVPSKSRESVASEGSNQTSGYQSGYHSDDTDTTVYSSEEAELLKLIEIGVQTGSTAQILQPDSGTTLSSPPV
Protocol: as §1

[14] = target: ProfilerPro Kinase Selectivity Assay Kit kinases (Homo sapiens, UniProt P48730); conditions: CK1 delta; 1 μM compound concentration
Protocol: as §1

[15] = target: ProfilerPro Kinase Selectivity Assay Kit kinases (Homo sapiens, UniProt Q06187); conditions: BTK; 1 μM compound concentration
Protocol: as §1

[16] = target: ProfilerPro Kinase Selectivity Assay Kit kinases (Homo sapiens, UniProt Q9P0L2); conditions: MARK1; 1 μM compound concentration
Protocol: as §1

[17] = tested on: ProfilerPro Kinase Selectivity Assay Kit kinases; conditions: 1 μM compound concentration
Protocol: as §1

[18] = target: ProfilerPro Kinase Selectivity Assay Kit kinases (Homo sapiens, UniProt P49137); conditions: MAPKAPK2; 1 μM compound concentration
Protocol: as §1

[19] = target: ProfilerPro Kinase Selectivity Assay Kit kinases (Homo sapiens, UniProt O95819); conditions: HGK; 1 μM compound concentration
Protocol: as §1

[20] = target: ProfilerPro Kinase Selectivity Assay Kit kinases (Homo sapiens, UniProt Q13177); conditions: PAK2; 1 μM compound concentration
Chain of ProfilerPro Kinase Selectivity Assay Kit kinases (Homo sapiens, UniProt Q13177) (Q13177 2-524 limits assumed): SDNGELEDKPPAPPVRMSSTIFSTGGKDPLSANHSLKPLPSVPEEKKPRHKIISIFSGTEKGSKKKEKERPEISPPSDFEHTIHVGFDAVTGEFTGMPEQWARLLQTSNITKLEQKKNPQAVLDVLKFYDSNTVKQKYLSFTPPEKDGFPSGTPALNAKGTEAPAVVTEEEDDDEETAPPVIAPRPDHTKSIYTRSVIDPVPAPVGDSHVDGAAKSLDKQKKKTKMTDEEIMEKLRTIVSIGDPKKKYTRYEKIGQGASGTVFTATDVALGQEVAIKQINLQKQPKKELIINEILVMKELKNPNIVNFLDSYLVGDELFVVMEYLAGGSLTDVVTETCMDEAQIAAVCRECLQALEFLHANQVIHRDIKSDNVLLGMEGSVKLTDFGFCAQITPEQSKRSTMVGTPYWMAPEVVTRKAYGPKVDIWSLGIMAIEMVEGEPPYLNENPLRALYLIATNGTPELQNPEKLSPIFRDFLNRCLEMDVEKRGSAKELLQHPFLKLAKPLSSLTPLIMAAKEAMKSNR
Protocol: as §1

[21] = target: ProfilerPro Kinase Selectivity Assay Kit kinases (Homo sapiens, UniProt P36888); conditions: FLT3; 1 μM compound concentration
Chain of ProfilerPro Kinase Selectivity Assay Kit kinases (Homo sapiens, UniProt P36888) (P36888 27-993 limits assumed): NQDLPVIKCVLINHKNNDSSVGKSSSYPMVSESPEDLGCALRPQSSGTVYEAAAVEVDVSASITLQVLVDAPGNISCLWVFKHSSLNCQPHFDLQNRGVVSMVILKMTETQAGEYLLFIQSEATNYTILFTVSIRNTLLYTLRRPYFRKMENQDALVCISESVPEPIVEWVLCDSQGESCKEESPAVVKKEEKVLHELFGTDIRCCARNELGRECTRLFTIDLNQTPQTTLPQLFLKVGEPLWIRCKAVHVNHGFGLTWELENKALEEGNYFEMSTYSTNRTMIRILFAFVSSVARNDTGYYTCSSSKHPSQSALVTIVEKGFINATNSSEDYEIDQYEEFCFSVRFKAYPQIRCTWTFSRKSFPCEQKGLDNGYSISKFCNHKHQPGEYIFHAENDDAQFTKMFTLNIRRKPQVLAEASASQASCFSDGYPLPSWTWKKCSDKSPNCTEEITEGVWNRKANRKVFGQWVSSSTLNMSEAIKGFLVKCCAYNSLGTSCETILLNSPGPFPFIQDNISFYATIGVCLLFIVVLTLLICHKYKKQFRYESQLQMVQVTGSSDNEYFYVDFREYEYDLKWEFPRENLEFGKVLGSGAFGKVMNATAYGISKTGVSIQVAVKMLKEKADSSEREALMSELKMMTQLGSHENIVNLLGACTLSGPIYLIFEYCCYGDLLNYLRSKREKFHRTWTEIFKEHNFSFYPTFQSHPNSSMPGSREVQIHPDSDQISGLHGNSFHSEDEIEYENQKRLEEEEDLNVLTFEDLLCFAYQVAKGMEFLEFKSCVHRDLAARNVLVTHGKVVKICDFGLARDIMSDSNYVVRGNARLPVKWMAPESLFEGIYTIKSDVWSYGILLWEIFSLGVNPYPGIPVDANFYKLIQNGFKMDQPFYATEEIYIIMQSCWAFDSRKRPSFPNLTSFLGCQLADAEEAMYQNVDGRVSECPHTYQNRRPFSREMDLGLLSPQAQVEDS
Protocol: as §1

[22] = target: ProfilerPro Kinase Selectivity Assay Kit kinases (Homo sapiens, UniProt P17612); conditions: PKA alpha; 1 μM compound concentration
Protocol: as §1

[23] = target: ProfilerPro Kinase Selectivity Assay Kit kinases (Homo sapiens, UniProt P08581); conditions: cMET; 1 μM compound concentration
Chain of ProfilerPro Kinase Selectivity Assay Kit kinases (Homo sapiens, UniProt P08581) (P08581 25-1390 limits assumed): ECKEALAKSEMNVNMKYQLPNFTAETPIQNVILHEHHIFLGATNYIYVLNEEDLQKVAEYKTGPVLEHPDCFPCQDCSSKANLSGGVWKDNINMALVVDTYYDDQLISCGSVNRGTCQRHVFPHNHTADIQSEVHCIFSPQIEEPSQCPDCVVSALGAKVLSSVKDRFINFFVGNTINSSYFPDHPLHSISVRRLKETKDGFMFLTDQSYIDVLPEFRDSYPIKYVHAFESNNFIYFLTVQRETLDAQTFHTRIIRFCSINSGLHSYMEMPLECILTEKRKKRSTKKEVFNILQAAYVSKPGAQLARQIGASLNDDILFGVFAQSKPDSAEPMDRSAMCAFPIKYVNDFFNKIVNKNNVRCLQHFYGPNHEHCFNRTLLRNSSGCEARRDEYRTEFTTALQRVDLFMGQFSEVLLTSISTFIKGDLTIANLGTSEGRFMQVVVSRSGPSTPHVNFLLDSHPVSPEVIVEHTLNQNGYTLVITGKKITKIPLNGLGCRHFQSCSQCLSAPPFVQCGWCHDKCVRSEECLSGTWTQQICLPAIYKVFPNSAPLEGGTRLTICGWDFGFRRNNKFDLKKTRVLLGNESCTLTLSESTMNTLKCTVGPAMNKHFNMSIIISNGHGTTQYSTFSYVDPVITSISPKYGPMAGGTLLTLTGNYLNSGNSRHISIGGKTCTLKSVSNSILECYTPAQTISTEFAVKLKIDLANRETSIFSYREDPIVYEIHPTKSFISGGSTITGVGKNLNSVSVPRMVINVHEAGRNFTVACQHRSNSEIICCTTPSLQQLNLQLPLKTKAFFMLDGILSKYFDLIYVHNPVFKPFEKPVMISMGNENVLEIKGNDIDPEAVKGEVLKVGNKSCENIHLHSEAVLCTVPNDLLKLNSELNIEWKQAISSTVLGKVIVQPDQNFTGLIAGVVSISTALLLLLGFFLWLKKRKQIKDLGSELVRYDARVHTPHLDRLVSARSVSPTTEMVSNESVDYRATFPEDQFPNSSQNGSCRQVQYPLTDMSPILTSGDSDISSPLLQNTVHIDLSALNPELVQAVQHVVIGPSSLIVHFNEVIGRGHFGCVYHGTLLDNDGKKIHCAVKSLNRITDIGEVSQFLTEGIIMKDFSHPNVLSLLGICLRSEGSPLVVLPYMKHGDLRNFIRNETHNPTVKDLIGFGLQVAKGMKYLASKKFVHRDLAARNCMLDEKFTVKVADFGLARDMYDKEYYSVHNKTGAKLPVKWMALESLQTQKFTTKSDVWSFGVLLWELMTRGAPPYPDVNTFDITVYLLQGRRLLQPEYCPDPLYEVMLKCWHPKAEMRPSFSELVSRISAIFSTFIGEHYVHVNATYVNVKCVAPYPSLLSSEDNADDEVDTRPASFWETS
Protocol: as §1

[24] = target: ProfilerPro Kinase Selectivity Assay Kit kinases (Homo sapiens, UniProt Q13188); conditions: MST2; 1 μM compound concentration
Protocol: as §1

[25] = target: ProfilerPro Kinase Selectivity Assay Kit kinases (Homo sapiens, UniProt P07948); conditions: LYN; 1 μM compound concentration
Chain of ProfilerPro Kinase Selectivity Assay Kit kinases (Homo sapiens, UniProt P07948) (P07948 2-512 limits assumed): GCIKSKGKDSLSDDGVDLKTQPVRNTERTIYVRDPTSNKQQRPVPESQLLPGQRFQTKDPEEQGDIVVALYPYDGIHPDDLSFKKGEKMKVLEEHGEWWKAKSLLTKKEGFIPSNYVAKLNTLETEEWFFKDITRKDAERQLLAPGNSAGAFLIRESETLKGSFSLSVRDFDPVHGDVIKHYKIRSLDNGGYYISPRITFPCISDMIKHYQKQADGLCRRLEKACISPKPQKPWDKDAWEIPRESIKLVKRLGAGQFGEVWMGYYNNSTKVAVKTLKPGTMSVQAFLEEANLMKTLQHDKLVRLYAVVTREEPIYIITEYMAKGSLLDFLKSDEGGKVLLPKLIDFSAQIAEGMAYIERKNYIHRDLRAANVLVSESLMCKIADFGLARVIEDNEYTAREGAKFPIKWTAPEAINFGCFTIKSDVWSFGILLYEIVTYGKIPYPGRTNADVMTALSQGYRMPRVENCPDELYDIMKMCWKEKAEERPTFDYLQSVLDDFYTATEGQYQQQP
Protocol: as §1

[26] = target: ProfilerPro Kinase Selectivity Assay Kit kinases (Homo sapiens, UniProt Q8IW41); conditions: PRAK; 1 μM compound concentration
Protocol: as §1

[27] = target: ProfilerPro Kinase Selectivity Assay Kit kinases (Homo sapiens, UniProt O00141); conditions: SGK1; 1 μM compound concentration
Protocol: as §1

[28] = target: ProfilerPro Kinase Selectivity Assay Kit kinases (Homo sapiens, UniProt P43405); conditions: SYK; 1 μM compound concentration
Protocol: as §1

[29] = target: ProfilerPro Kinase Selectivity Assay Kit kinases (Homo sapiens, UniProt P00519); conditions: ABL; 1 μM compound concentration
Protocol: as §1

[30] = target: ProfilerPro Kinase Selectivity Assay Kit kinases (Homo sapiens, UniProt P06213); conditions: INSR; 1 μM compound concentration
Protocol: as §1

[31] = target: ProfilerPro Kinase Selectivity Assay Kit kinases (Homo sapiens, UniProt O75116); conditions: ROCK2; 1 μM compound concentration
Protocol: as §1

Chain of ProfilerPro Kinase Selectivity Assay Kit kinases (Homo sapiens, UniProt P27361) (P27361 2-379 limits assumed): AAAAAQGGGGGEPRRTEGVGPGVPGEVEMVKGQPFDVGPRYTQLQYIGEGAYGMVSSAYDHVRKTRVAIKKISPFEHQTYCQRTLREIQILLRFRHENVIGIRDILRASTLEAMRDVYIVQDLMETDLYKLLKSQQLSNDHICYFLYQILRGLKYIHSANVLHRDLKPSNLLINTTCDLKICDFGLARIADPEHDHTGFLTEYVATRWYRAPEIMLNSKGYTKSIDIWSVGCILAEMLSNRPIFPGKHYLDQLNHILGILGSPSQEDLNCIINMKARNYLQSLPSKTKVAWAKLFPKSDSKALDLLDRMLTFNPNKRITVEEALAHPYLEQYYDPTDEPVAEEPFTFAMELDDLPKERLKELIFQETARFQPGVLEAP

SMILES	POC (Percent of control) ERK1 [1] [POC]	POC (Percent of control) IGF1R [2] [POC]	POC (Percent of control) SRC [3] [POC]	POC (Percent of control) AURORA A [4] [POC]	POC (Percent of control) FGFR1 [5] [POC]	POC (Percent of control) DYRK1a [6] [POC]	POC (Percent of control) MSK1 [7] [POC]	POC (Percent of control) FYN [8] [POC]	POC (Percent of control) AKT2 [9] [POC]	POC (Percent of control) CDK2 [10] [POC]	POC (Percent of control) PKD2 [11] [POC]	POC (Percent of control) CHK1 [12] [POC]	POC (Percent of control) KDR [13] [POC]	POC (Percent of control) CK1 delta [14] [POC]	POC (Percent of control) BTK [15] [POC]	POC (Percent of control) MARK1 [16] [POC]	POC (Percent of control) AMPK [17] [POC]	POC (Percent of control) CAMK2 [17] [POC]	POC (Percent of control) PKC beta2 [17] [POC]	POC (Percent of control) TAK1 [17] [POC]	other results
Cc1cnc(Nc2cccc3[nH]ncc23)c(-c2nc(C)nc(N)n2)c1 [Example 47, N-(3-(4-Amino-6-Methyl-1,3,5-Triazin-2-yl)-5-Methylpyridine-2-yl)-1H-Indazol-4-Amine]	103	82	79	85	94	82	76	87	74	93	113	92	86	69	93	107	87	126	100	106	POC (Percent of control) MAPKAPK2 [18]: 101 POC; POC (Percent of control) HGK [19]: 91 POC; POC (Percent of control) PAK2 [20]: 99 POC; POC (Percent of control) FLT3 [21]: 89 POC; POC (Percent of control) PKA alpha [22]: 16 POC; POC (Percent of control) cMET [23]: 102 POC; POC (Percent of control) MST2 [24]: 101 POC; POC (Percent of control) LYN [25]: 55 POC; POC (Percent of control) PRAK [26]: 103 POC; POC (Percent of control) SGK1 [27]: 89 POC; POC (Percent of control) SYK [28]: 95 POC; POC (Percent of control) ABL [29]: 81 POC; POC (Percent of control) INSR [30]: 99 POC; POC (Percent of control) ROCK2 [31]: 93 POC
Cc1nc(-c2cccnc2Nc2cccc3[nH]ncc23)c2nc[nH]c2n1 [Example 57, N-(3-(2-methyl-9H-purin-6-yl)pyridin-2-yl)-1H-indazol-4-amine]	100	77	93	99	95	91	101	103	98	95	97	106	90	55	98	99	92	109	97	97	POC (Percent of control) MAPKAPK2 [18]: 99 POC; POC (Percent of control) HGK [19]: 93 POC; POC (Percent of control) PAK2 [20]: 95 POC; POC (Percent of control) FLT3 [21]: 92 POC; POC (Percent of control) PKA alpha [22]: 100 POC; POC (Percent of control) cMET [23]: 100 POC; POC (Percent of control) MST2 [24]: 95 POC; POC (Percent of control) LYN [25]: 95 POC; POC (Percent of control) PRAK [26]: 100 POC; POC (Percent of control) SGK1 [27]: 92 POC; POC (Percent of control) SYK [28]: 100 POC; POC (Percent of control) ABL [29]: 94 POC; POC (Percent of control) INSR [30]: 94 POC; POC (Percent of control) ROCK2 [31]: 95 POC
COc1ccc(Nc2ncccc2-c2nc(C)nc3[nH]cnc23)cn1 [Example 58, N-(6-methoxypyridin-3-yl)-3-(2-methyl-9H-purin-6-yl)pyridin-2-amine]	101	92	102	94	94	93	98	103	96	99	92	101	93	104	102	146	99	103	161	107	POC (Percent of control) MAPKAPK2 [18]: 96 POC; POC (Percent of control) HGK [19]: 104 POC; POC (Percent of control) PAK2 [20]: 102 POC; POC (Percent of control) FLT3 [21]: 112 POC; POC (Percent of control) PKA alpha [22]: 96 POC; POC (Percent of control) cMET [23]: 103 POC; POC (Percent of control) MST2 [24]: 100 POC; POC (Percent of control) LYN [25]: 100 POC; POC (Percent of control) PRAK [26]: 84 POC; POC (Percent of control) SGK1 [27]: 97 POC; POC (Percent of control) SYK [28]: 86 POC; POC (Percent of control) ABL [29]: 99 POC; POC (Percent of control) INSR [30]: 104 POC; POC (Percent of control) ROCK2 [31]: 100 POC
